Numbers after ± are expanded uncertainties.
Assays:
[1] = 293.15 K; for surface tension liquid-gas: Pendant drop shape; for mass density: 101.33 kPa, Liquid
[2] = xn = mol fraction of the nth substance listed; conditions: 293.15 K; for surface tension liquid-gas: Pendant drop shape; for mass density: 101 kPa, Liquid

CC#N [acetonitrile]
[1]
Conditions | mass density [kg/m3] | surface tension liquid-gas [mN/m]
– | 778.3 ± 0.31 | 29.25 ± 0.34

CC#N [acetonitrile] + CCCCO
[2]
Conditions | mass density [kg/m3] | surface tension liquid-gas [mN/m]
x1 = 0.1026 | 805.36 ± 0.34 | 24.65 ± 0.32
x1 = 0.2021 | 803.18 ± 0.34 | 24.78 ± 0.32
x1 = 0.302 | 800.8 ± 0.33 | 24.94 ± 0.32
x1 = 0.5024 | 795.42 ± 0.32 | 25.52 ± 0.32
x1 = 0.7014 | 789.23 ± 0.31 | 26.53 ± 0.33
x1 = 0.8007 | 785.7 ± 0.31 | 27.25 ± 0.33
x1 = 0.8995 | 782.01 ± 0.3 | 28.14 ± 0.34

CC#N [acetonitrile] + CCCO
[2]
Conditions | mass density [kg/m3] | surface tension liquid-gas [mN/m]
x1 = 0.1004 | 799.54 ± 0.34 | 24.02 ± 0.32
x1 = 0.2018 | 797.63 ± 0.34 | 24.23 ± 0.32
x1 = 0.3013 | 795.62 ± 0.33 | 24.52 ± 0.32
x1 = 0.5004 | 791.05 ± 0.32 | 25.32 ± 0.32
x1 = 0.7003 | 785.97 ± 0.31 | 26.5 ± 0.33
x1 = 0.8002 | 783.29 ± 0.31 | 27.27 ± 0.33
x1 = 0.8997 | 780.68 ± 0.3 | 28.19 ± 0.34

CC#N [acetonitrile] + CCO
[2]
Conditions | mass density [kg/m3] | surface tension liquid-gas [mN/m]
x1 = 0.0999 | 786.57 ± 0.31 | 22.81 ± 0.31
x1 = 0.2007 | 785.99 ± 0.31 | 23.3 ± 0.31
x1 = 0.3039 | 785.05 ± 0.3 | 23.85 ± 0.31
x1 = 0.5001 | 783.08 ± 0.3 | 25.06 ± 0.32
x1 = 0.6994 | 780.89 ± 0.3 | 26.51 ± 0.33
x1 = 0.8013 | 779.8 ± 0.3 | 27.36 ± 0.33
x1 = 0.8996 | 778.91 ± 0.3 | 28.26 ± 0.34

CC#N [acetonitrile] + CO
[2]
Conditions | mass density [kg/m3] | surface tension liquid-gas [mN/m]
x1 = 0.1001 | 788.46 ± 0.35 | 23.8 ± 0.32
x1 = 0.2011 | 788.04 ± 0.34 | 24.73 ± 0.32
x1 = 0.2996 | 787.13 ± 0.33 | 25.53 ± 0.32
x1 = 0.4997 | 784.82 ± 0.32 | 26.85 ± 0.33
x1 = 0.7012 | 782.13 ± 0.31 | 27.94 ± 0.34
x1 = 0.8009 | 780.75 ± 0.31 | 28.42 ± 0.34
x1 = 0.8956 | 779.47 ± 0.31 | 28.85 ± 0.34

CCCCO [butan-1-ol]
[1]
Conditions | mass density [kg/m3] | surface tension liquid-gas [mN/m]
– | 807.33 ± 0.35 | 24.5 ± 0.32

CCO [ethanol]
[1]
Conditions | mass density [kg/m3] | surface tension liquid-gas [mN/m]
– | 786.44 ± 0.31 | 22.31 ± 0.3

CO [methanol]
[1]
Conditions | mass density [kg/m3] | surface tension liquid-gas [mN/m]
– | 787.83 ± 0.36 | 22.78 ± 0.31

CCCCCO [pentan-1-ol]
[1]
Conditions | mass density [kg/m3] | surface tension liquid-gas [mN/m]
– | 815.11 ± 0.5 | 25.46 ± 0.34

CCCCCO [pentan-1-ol] + CC#N
[2]
Conditions | mass density [kg/m3] | surface tension liquid-gas [mN/m]
x2 = 0.1003 | 812.2 ± 0.47 | 25.49 ± 0.34
x2 = 0.2031 | 809.06 ± 0.44 | 25.54 ± 0.34
x2 = 0.3014 | 806.03 ± 0.41 | 25.57 ± 0.33
x2 = 0.5003 | 799.64 ± 0.37 | 25.82 ± 0.33
x2 = 0.7 | 792.42 ± 0.33 | 26.64 ± 0.33
x2 = 0.8001 | 788.11 ± 0.32 | 27.29 ± 0.33
x2 = 0.8993 | 783.38 ± 0.31 | 28.11 ± 0.34

CCCO [propan-1-ol]
[1]
Conditions | mass density [kg/m3] | surface tension liquid-gas [mN/m]
– | 801.3 ± 0.4 | 23.78 ± 0.32

— the NIST ThermoML archive (doi:10.1021/je050519g)
